Experimental data published in patent US7659284B2, “Thiazolopyridine kinase inhibitors” (Janssen Pharmaceutica NV, priority 2004, dated 2010).
pIC50: −log10 of the molar value.

Experiments:
Assay type in all cases: biochemical
[1] = molecular target: T1, EGFR (Homo sapiens, UniProt P00533); test: EGFR Kinase Assay (GST-EGFR, 33P-ATP, Streptavidin Flashplate); settings: for pIC50: GST-EGFR intracellular portion, 5 μM ATP; for inhibition at 2 µM: test concentration of 2 μM, read-out: EGFR percent inhibition
T1 construct: started at nucleotide 2189 (corresponding to amino acid 667) and ended at the termination codon; made in house; host or cells: Sf9 insect cells (baculovirus)
Description: The EGFR kinase used was a fusion of Glutathione-S-Transferase (GST) and a PCR amplified intracellular portion of EGFR (NM_005228). The intracellular portion of EGFR started at nucleotide 2189 (corresponding to amino acid 667) and ended at the termination codon. The portion was PCR amplified with primers that added the lambda attB sequences to each end, recombined into an entry vector, then into a GST destination vector (as described in Gateway Technologies Manual by Invitrogen Corporation, Carlsbad, Calif.).
The destination vector was recombined in the DH10BAC strain of bacteria to produce a bacmid. The bacmid was transfected into Sf 9 cells and the supernatant containing the baculovirus was collected. The GSTEGFR protein was purified using large cultures of Sf 9 cells infected with stock virus. After an appropriate period of time, the cells were collected and lysed. The GSTEGFR was then purified from the lysate on Glutathione-Sepharose columns (as described by Amersham Biosciences, Buckinghamshire, United Kingdom).
The EGFR substrate was prepared by biotinylating polyGluTyr (128 mg) (Sigma, St. Louis, Mo.) in a 1×PBS buffer incubated together with a 12-fold molar excess of Sulfo-NHS-LC-Biotin on ice for at least 2 hrs. The free biotin was separated from the biotinylated polyGluTyr on a gel filtration column.
A mixture of a 10× kinase buffer (500 mM Tris at pH 8.0, 100 mM Magnesium Chloride and 1 mM Sodium Vanadate), DTT (1 mM final from 500 mM stock), ATP (5 μM final from 10 mM stock), biotinylated polyGluTyr (10 μg/μL stock), γ-^33P ATP (10 μCi/μL stock) and water was added to each well (90 μL/well) of a Streptavidin Flashplate (Perkin Elmer, Wellesley, Mass.).
Test compound in 100% DMSO (2 μL) was added to the appropriate wells. Diluted GSTEGFR (1:300 dilution in 50 mM Tris at pH 8.0 and 0.1% bovine serum albumin) (10 μL) was added to the wells to initiate the reactions.
The plates were incubated at 30° C. for 1 hr with shaking. The reacted contents were removed and the plates were sequentially washed three times with a 1×PBS stop buffer (300 μL without Magnesium and Calcium) and 100 mM EDTA. After the final wash, the same stop buffer (200 μL) was added to the wells. The plates were then sealed and read on the TopCount scintillation counter.
Test compounds were assayed in triplicate at 16 concentrations at half-log dilutions starting at 200 uM. A maximum and minimum signal for the assay was determined on each plate. The percent inhibition of a test compound was calculated accord to the formula
For a series of test concentrations, the IC50 was derived by graphing percent inhibition against the log of the concentrations tested for a given compound. For those compounds without an IC50, the percent inhibition results are shown at a test concentration of 2 μM.

[2] = molecular target: T2, HER-2 (Homo sapiens, UniProt P04626); test: HER-2 Kinase Assay; settings: GST-HER2 kinase, 1 μM ATP
T2 construct: the nucleotides encoding amino acids 679 to 1255 of HER-2; HIS6 with thrombin site (N); purchased Proqinase (Freiburg, Germany)
Protocol: The HER-2 kinase used was purified at Proqinase (Freiburg, Germany) from a construct that consisted of a fusion of GST (Glutathione-S-Transferase), HIS6-Thrombin and the nucleotides encoding amino acids 679 to 1255 of HER-2.
A mixture of a 10× kinase reaction buffer (600 mM Hepes at pH 7.5, 30 mM Magnesium Chloride, 0.03 mM Sodium Vanadate and 500 μg/mL PEG 20,000), DTT (1.2 mM final from a 10 mM stock), ATP (1 μM from a 10 mM stock), biotinylated polyGluTyr (1.5 ng/μL final from stock of 1 μg/μL prepared by Upstate Biotechnologies, Lake Placid, N.Y.), Manganese Chloride (3 mM final from a 1 M stock), γy-^33P-ATP (10 μCi/μL stock) and water (70 μL/well) was added to each well of a Streptavidin Flashplate (Cat. # SMP103, NEN, Boston, Mass.).
Test compound stock (1 μL) was added to the appropriate wells. Diluted GSTHER2 kinase (6.7 ng/μL diluted into 50 mM Tris-HCl at pH 8.0 and 0.1% bovine serum albumin) (30 μL) was added (total volume of 200 ng/well) to initiate the reactions.
The reaction plates were incubated at 30° C. for 1 hr. The reaction was terminated by aspirating the reaction mixture from the plate wells and washing the wells three times with a 1×PBS stop buffer (300 μL) and 100 mM EDTA. After the final wash, the same stop buffer (200 μL) was again added to the wells. The plates were then sealed and read on the TopCount scintillation counter.
The IC50 was derived according to the procedure described in Example 52. For those compounds without an IC50, the percent inhibition results are shown at a test concentration of 1 μM.

[3] = molecular target: T3, c-Src kinase (human) (Homo sapiens, UniProt P12931); test: c-Src Kinase Assay; settings: for inhibition at 1.6 µM: test concentration (2) 1.6 μM, read-out: c-SRC percent inhibition; for pIC50: human c-Src, 5 μM ATP
T3 construct: purchased Upstate Biotechnology, Lake Placid, N.Y
Protocol: […] a 10× kinase buffer (80 mM MOPS at pH 7.0, 2 mM EDTA and 100 mM Magnesium Chloride), ATP (5 μM final from a 10 mM stock), a Cdc2 peptide KVEKIGEGTYGVVYK (100 μM final from a 2.5 mM stock), γ-^33P ATP (10 μCi/μL stock) and water (20 μL/well) was added to each well of a Streptavidin Flashplate.
Test compound in 100% DMSO (0.5 μL) was added to the appropriate wells. Diluted c-Src kinase (human) (Upstate Biotechnology, Lake Placid, N.Y.) (diluted in a buffer consisting of 20 mM MOPS at pH 7.0, 1 mM EDTA, β-mercaptoethanol (0.1%), Brij-35 (0.01%), glycerol (5%), and 1 mg/mL bovine serum albumin) (2.5 μL) was added to the wells to initiate the reactions. The reaction plates were incubated at 30° C. for 40 min. The reaction was terminated by the addition of a 3% phosphoric acid solution (5 μL). The reaction product (10 μL) was spotted onto a P30 filtermat and washed for 5 minutes in phosphoric acid (75 mM). The wash sequence was repeated two more times, followed with one final wash in methanol. The plates were then dried, sealed and read on the TopCount scintillation counter after adding 30 μL scintillation fluid.
The percent inhibitions and IC50 values were derived according to the procedure described in Example 52. For those compounds without an IC50, the percent inhibition results are shown at a test concentration of ^(1)1 μM or ^(2)1.6 μM.

T1 sequence (P00533 667-1210 limits assumed): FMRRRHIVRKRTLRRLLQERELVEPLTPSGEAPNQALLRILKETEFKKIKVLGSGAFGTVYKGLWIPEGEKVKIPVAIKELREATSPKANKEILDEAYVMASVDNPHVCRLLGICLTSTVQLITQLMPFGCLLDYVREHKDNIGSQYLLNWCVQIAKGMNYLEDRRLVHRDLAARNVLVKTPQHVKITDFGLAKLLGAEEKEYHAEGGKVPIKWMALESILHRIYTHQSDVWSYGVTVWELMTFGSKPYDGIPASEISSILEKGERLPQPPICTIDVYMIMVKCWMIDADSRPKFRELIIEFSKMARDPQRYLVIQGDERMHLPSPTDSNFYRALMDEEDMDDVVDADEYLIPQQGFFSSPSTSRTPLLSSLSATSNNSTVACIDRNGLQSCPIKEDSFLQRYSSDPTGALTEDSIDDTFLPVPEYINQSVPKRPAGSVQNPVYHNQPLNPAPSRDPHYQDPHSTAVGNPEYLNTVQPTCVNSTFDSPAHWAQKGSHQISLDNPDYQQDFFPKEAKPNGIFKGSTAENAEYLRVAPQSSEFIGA
T3 sequence (P12931 whole entry): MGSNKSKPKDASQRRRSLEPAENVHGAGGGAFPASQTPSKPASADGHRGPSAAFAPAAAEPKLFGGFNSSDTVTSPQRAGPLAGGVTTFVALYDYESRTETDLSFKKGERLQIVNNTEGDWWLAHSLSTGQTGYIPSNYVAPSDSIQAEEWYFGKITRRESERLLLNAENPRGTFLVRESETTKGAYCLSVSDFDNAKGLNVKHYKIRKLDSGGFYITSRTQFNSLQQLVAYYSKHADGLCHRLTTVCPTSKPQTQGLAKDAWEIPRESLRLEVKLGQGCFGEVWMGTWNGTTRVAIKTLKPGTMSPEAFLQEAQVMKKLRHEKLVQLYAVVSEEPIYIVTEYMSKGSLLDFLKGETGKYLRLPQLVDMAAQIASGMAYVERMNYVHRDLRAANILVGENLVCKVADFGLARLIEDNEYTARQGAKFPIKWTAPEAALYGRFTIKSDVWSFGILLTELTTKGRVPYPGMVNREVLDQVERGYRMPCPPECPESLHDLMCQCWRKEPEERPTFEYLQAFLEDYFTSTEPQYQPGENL
T2 sequence (P04626 679-1255): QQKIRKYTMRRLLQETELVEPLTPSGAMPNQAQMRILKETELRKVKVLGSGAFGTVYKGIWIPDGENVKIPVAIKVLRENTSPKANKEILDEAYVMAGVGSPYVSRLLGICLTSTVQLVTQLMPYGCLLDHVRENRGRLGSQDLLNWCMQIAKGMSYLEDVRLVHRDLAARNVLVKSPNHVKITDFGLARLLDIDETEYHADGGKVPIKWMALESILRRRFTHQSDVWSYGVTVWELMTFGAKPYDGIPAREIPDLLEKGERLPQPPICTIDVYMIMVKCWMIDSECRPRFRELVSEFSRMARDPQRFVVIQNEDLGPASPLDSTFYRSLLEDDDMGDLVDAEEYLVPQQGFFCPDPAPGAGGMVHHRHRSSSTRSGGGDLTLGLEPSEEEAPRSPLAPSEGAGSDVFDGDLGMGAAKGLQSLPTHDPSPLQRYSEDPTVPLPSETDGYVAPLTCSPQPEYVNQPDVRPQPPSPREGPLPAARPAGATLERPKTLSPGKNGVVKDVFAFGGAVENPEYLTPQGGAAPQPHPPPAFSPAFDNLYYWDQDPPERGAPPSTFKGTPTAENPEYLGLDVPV

Structure (SMILES)	pIC50 [1]	pIC50 [2]	inhibition at 1.6 µM [3]	pIC50 [3]	inhibition at 2 µM [1]
C#Cc1cccc(Nc2c(C#N)cnc3nc(Nc4ccc(CN(C)C)cc4)sc23)c1 [Cpd 10, 2-(4-dimethylaminomethyl-phenylamino)-7-(3-ethynyl-phenylamino)thiazolo[4,5-b]pyridine-6-carbonitrile]	7.25	5.00			
N#Cc1cnc2nc(Nc3ccc(CN4CCCC4)cc3)sc2c1Nc1ccc(F)c(Cl)c1 [Cpd 17, 7-(3-chloro-4-fluoro-phenylamino)-2-(4-pyrrolidin-1-ylmethyl-phenylamino)-thiazolo[4,5-b]pyridine-6-carbonitrile]	7.40	4.34			
COc1ccc(Cl)c(Nc2c(C#N)cnc3nc(Nc4ccc(OCC5CCCN(C)C5)cc4)sc23)c1 (centres unmarked) [Cpd 35, 7-(2-chloro-5-methoxy-phenylamino)-2-[4-(1-methyl-piperidin-3-ylmethoxy)-phenylamino]-thiazolo[4,5-b]pyridine-6-carbonitrile]	6.34		11%		
CN1CCCC(COc2ccc(Nc3nc4ncc(C#N)c(Oc5ccc(Cl)cc5Cl)c4s3)cc2)C1 (centres unmarked) [Cpd 36, 7-(2,4-dichloro-phenoxy)-2-[4-(1-methyl-piperidin-3-ylmethoxy)-phenylamino]-thiazolo[4,5-b]pyridine-6-carbonitrile]	5.06		4%		
CN1CCCC(COc2ccc(Nc3nc4ncc(C#N)c(Oc5cccc(OC(F)(F)F)c5)c4s3)cc2)C1 (centres unmarked) [Cpd 37, 2-[4-(1-methyl-piperidin-3-ylmethoxy)-phenylamino]-7-(3-trifluoromethoxy-phenoxy)-thiazolo[4,5-b]pyridine-6-carbonitrile]	5.14		3%		
CN1CCCC(COc2ccc(Nc3nc4ncc(C#N)c(Sc5cccc(Br)c5)c4s3)cc2)C1 (centres unmarked) [Cpd 38, 7-(3-bromo-phenylsulfanyl)-2-[4-(1-methyl-piperidin-3-ylmethoxy)-phenylamino]-thiazolo[4,5-b]pyridine-6-carbonitrile]	5.66		4%		
CN1CCCC(COc2ccc(Nc3nc4ncc(C#N)c(Sc5ccc(F)cc5Cl)c4s3)cc2)C1 (centres unmarked) [Cpd 39, 7-(2-chloro-4-fluoro-phenylsulfanyl)-2-[4-(1-methyl-piperidin-3-ylmethoxy)-phenylamino]-thiazolo[4,5-b]pyridine-6-carbonitrile]	5.49			< 4.00	
CN1CCCC(COc2ccc(Nc3nc4ncc(C#N)c(Nc5c(Cl)ccc6c5OCO6)c4s3)cc2)C1 (centres unmarked) [Cpd 40, 7-(5-chloro-benzo[1,3]dioxol-4-ylamino)-2-[4-(1-methyl-piperidin-3-ylmethoxy)-phenylamino]-thiazolo[4,5-b]pyridine-6-carbonitrile]				5.62	46%
N#Cc1cnc2nc(Nc3ccc(CN4CCCCC4)cc3)sc2c1Nc1c(Cl)ccc2c1OCO2 [Cpd 41, 7-(5-chloro-benzo[1,3]dioxol-4-ylamino)-2-(4-piperidin-1-ylmethyl-phenylamino)-thiazolo[4,5-b]pyridine-6-carbonitrile]				7.10	44%
COc1cc(Nc2nc3ncc(C#N)c(Nc4c(Cl)ccc5c4OCO5)c3s2)ccc1OCCN1CCOCC1 [Cpd 42, 7-(5-chloro-benzo[1,3]dioxol-4-ylamino)-2-[3-methoxy-4-(2-morpholin-4-yl-ethoxy)-phenylamino]-thiazolo[4,5-b]pyridine-6-carbonitrile]				5.86	18%
COc1cc(Nc2nc3ncc(C#N)c(Nc4c(Cl)ccc5c4OCO5)c3s2)ccc1OCC1CCCCO1 (centres unmarked) [Cpd 43, 7-(5-chloro-benzo[1,3]dioxol-4-ylamino)-2-[3-methoxy-4-(tetrahydro-pyran-2-ylmethoxy)-phenylamino]-thiazolo[4,5-b]pyridine-6-carbonitrile]				< 4.00	4%
N#Cc1cnc2nc(Nc3ccc(CNC[C@H]4CCCO4)cc3)sc2c1Nc1c(Cl)ccc2c1OCO2 [Cpd 44, 7-(5-chloro-benzo[1,3]dioxol-4-ylamino)-2-[4-({[(2R)-tetrahydro-furan-2-ylmethyl]-amino}-methyl)-phenylamino]-thiazolo[4,5-b]pyridine-6-carbonitrile]				6.90	47%
N#Cc1cnc2nc(Nc3ccc(CN4CCCC4)cc3)sc2c1Nc1c(Cl)ccc2c1OCO2 [Cpd 45, 7-(5-chloro-benzo[1,3]dioxol-4-ylamino)-2-(4-pyrrolidin-1-ylmethyl-phenylamino)-thiazolo[4,5-b]pyridine-6-carbonitrile]				6.84	
CN1CCN(Cc2ccc(Nc3nc4ncc(C#N)c(Nc5c(Cl)ccc6c5OCO6)c4s3)cc2)CC1 [Cpd 46, 7-(5-chloro-benzo[1,3]dioxol-4-ylamino)-2-[4-(4-methyl-piperazin-1-ylmethyl)-phenylamino]-thiazolo[4,5-b]pyridine-6-carbonitrile]				6.41	
